The values that follow come from publication PMC12147209 (2025).

Assay [1] deals with 5′-AA-3′ (DNA, single strand, 5'-phosphate (discussed as a 5' phosphate group in the modelled structure)) AA. In words: SERS adsorption isotherm, Hill-Langmuir fit. Conditions: no added salt stated; immobilised compound, apparent; dinucleotide adsorption on spermine-capped gold-silver nanostars; 20 °C; spermine 6.7×10^-5 M; Hill n 1.5.
Assay [2] has the same test system. The assay is described as follows: Raman spectroscopy of dried mixture (532 nm). Conditions: no added salt stated; water, dried residue; spermine and dinucleotide at 2:1 molar excess, incubated overnight.

In the case of `NCCCNCCCCNCCCN`, the K d result in assay [1] is “(6.2 ± 0.7) 10^–7 M”. In addition, the binding result in assay [2] is “yes”.
